Results reported in patent US7122294B2, “Photoacid generators with perfluorinated multifunctional anions” (3M Innovative Properties Company, priority 2003, dated 2006).
Several values for one entry are separate records, joined by “and”; a condition that tells them apart may be missing. Equal values may be shown once.

Legend:
[1] = Volatility by vacuum distillation from 100% H2SO4; type: physicochemical
Protocol: This example describes an unsuccessful attempt to vacuum distill the difunctional perfluoroorganic disulfonic acid, HO3S(CF2)4SO3H, illustrating the very low volatility of this diacid compared to monofunctional perfluoroalkanesulfonic acids of even higher molecular weight, like C8F17SO3H. The dipotassium salt, KO3S(CF2)4SO3K (40.0 g) and 100% H2SO4 (241 g) were charged to a vacuum distillation apparatus comprising a 250 mL, three-necked flask equipped with a heating mantle, magnetic stirring bar, an insulated short path distillation head and a 100 mL receiver flask. The pot temperature and head temperature were continuously monitored with J-type thermocouple probes. […] The pressure was reduced to 3.6 Torr and the pot temperature raised to 178° C., but still there was no boiling or distillation. The pressure was reduced further and additional heat was applied to the pot to force distillation. Distillate eventually started to collect at a pot temperature of 196° C. and a pressure of 1.75 Torr. A total of 73.3 g of distillate was collected between 184–186° C. (head temperature) before the distillation was terminated. Since this represents 222% of the theoretical HO3S(CF2)4SO3H yield, it was surmised that the distillate was probably mostly sulfuric acid. The presence of significant H2SO4 in the distillate was confirmed by precipitation of BaSO4 upon treatment of an aqueous solution of the distillate with BaCl2.
The remaining pot retains were diluted in about 700 mL of water and treated with 350 mL of tributylamine with stirring. A white solid precipitate presumed to be Bu3NH+−O3S(CF2)4SO3^−Bu3NH^+ formed which was isolated by suction filtration washed with three portions of water and air-dried by suction to yield 44.07 g (66% of theory). […] Thus, even though the molecular weight of this monofunctional acid is 38% greater than that of HO3S(CF2)4SO3H, it is much more volatile and distills at much lower temperature than the difunctional acid. […]

[2] = Thermal gravimetric analysis (TGA), onset of thermal decomposition; type: physicochemical; conditions: under nitrogen, ramp 10° C. per minute
Protocol: TGA was performed on a Perkin-Elmer Instruments TGA Model 7 in an open platinum pan. The onset of thermal decomposition, Td, was taken as the thermal decomposition temperature of the photoacid generators and was determined under nitrogen atmosphere using a temperature ramp of 10° C. per minute. The onset temperature was determined by the intersection of tangents to the low temperature portion of the baseline and the first inflection point in the wt % vs. temperature curve.

[3] = Photo-DSC/DSC cationic curing activity of PAGs in VEX 5015; set-up: PDSC Peak Max / PDSC Induction Time: unit not given here; conditions: for PDSC Energy: VEX 5015, 1.0% PAG, 0.1% ITX, light exposure 5 min at 30° C.; for PDSC Induction Time: light exposure at 30° C.; for DSC Only (dark) Onset Temp: no prior light exposure; for PDSC Peak Max: time to peak maximum of curing exotherm at 30° C.
Protocol: (§1) Photo-DSC/DSC: Standard (hermetic) liquid sample pans were used. Sample size was kept in the 6 to 8 mg range. Samples were tested using a Dupont Photo-DSC/DSC instrument (available from DuPont, Wilmington, Del.). The light source was a 200 W Hg lamp that delivered about 60 mw/cm at the sample. Samples were exposed in open pans for 5 minutes to the light source at 30° C. then removed from the instrument, sealed and a standard DSC scan run at 10° C./minute to 300° C. A separate DSC experiment was carried out using a sealed sample pan and no prior light exposure to determine the dark reactivity of these PAGs. Comparison of the DSC traces before and after light exposure enables differentiation between the thermal reactivity of the PAGs (in the dark) and their photochemical activity.
(§2) This example describes photo-DSC/DSC experiments designed to quantitatively compare the relative cationic curing reactivities of PAGs of the present invention containing difunctional fluoroorganic sulfonate anions with related PAGs having identical cations and monofunctional perfluoroalkanesulfonate anions. Relative reactivities were measured in three different cationically polymerizable monomer systems, including two different types of epoxies and one vinyl ether.
(§3) The photo-DSC experiment provides information on the photo-cure speed at 30° C. as measured by the induction time (onset) and time to reach the peak maximum in the curing exotherm. […] The energy released under the curing exotherm is a measure of the extent of cure; larger values mean more cure has taken place during the light exposure. […] Comparison with the DSC traces recorded with no prior light exposure provides a measure of the increase in activity after photoactivation of the PAG.
(§4) General: Stock solutions of three cationically curable monomers were prepared as shown in Table 3 with 0.1% (w/w) isopropylthioxanthone (ITX). Epon 828 is a difunctional glycidyl ether epoxy from Shell, ERL-4221 is a difunctional cycloaliphatic epoxy from Union Carbide and VEX 5015 is a trifunctional vinyl ether from Allied Signal. Because of the low sensitivity of these compositions to room lights, all sample preparation was done with the lab lights on but the hood lights off. All PAGs were formulated at 1.0% by weight in the stock monomer/sensitizer solutions. Into a small aluminum pan was weighed 0.02 g of PAG and 0.04 g of propylene carbonate used to promote dissolution of the PAG in the monomer. The pan was heated briefly on a hot plate set at 100° C. to dissolve the PAG, then 2.0 g the stock monomer/sensitizer solution was added. The solution was briefly heated again on a hot plate set at 100° C. to allow complete mixing of the components, then the solution was allowed to cool to room temperature before using.

[4] = Photo-DSC/DSC cationic curing activity of PAGs in Epon 828; set-up: PDSC Peak Max / PDSC Induction Time: unit not given here; conditions: for PDSC Energy: Epon 828, 1.0% PAG, 0.1% ITX, light exposure 5 min at 30° C.; for DSC after PDSC Onset Temp / DSC after PDSC Energy / DSC after PDSC Peak Max / PDSC Induction Time / DSC Only (dark) Energy / DSC Only (dark) Onset Temp / DSC Only (dark) Peak Max / PDSC Peak Max: Epon 828; for DSC after PDSC Onset Temp: DSC scan 10° C./minute after light exposure; for DSC after PDSC Energy / DSC after PDSC Peak Max: DSC scan after light exposure; for PDSC Induction Time: light exposure at 30° C.; for DSC Only (dark) Energy / DSC Only (dark) Onset Temp / DSC Only (dark) Peak Max: no prior light exposure; for PDSC Peak Max: time to peak maximum of curing exotherm at 30° C.
Protocol: as §1, §2, §3, §4

[5] = Photo-DSC/DSC cationic curing activity of PAGs in ERL-4221; set-up: PDSC Peak Max / PDSC Induction Time: unit not given here; conditions: for PDSC Energy: ERL-4221, 1.0% PAG, 0.1% ITX, light exposure 5 min at 30° C.; for DSC after PDSC Onset Temp / DSC after PDSC Energy / DSC after PDSC Peak Max / PDSC Induction Time / DSC Only (dark) Energy / DSC Only (dark) Onset Temp / DSC Only (dark) Peak Max / PDSC Peak Max: ERL-4221; for DSC after PDSC Onset Temp: DSC scan 10° C./minute after light exposure; for DSC after PDSC Energy / DSC after PDSC Peak Max: DSC scan after light exposure; for PDSC Induction Time: light exposure at 30° C.; for DSC Only (dark) Energy / DSC Only (dark) Onset Temp / DSC Only (dark) Peak Max: no prior light exposure; for PDSC Peak Max: time to peak maximum of curing exotherm at 30° C.
Protocol: as §1, §2, §3, §4

[6] = Elimination of perfluoroalkylsulfonates from the body; type: in vivo; conditions: tested in the form of its potassium salt
[7] = VEX 5015, DSC scan after light exposure
[8] = VEX 5015, two values = two exotherms
[9] = VEX 5015, DSC scan after light exposure, two values = two exotherms

O=S(=O)(O)C(F)(F)C(F)(F)C(F)(F)C(F)(F)C(F)(F)C(F)(F)C(F)(F)C(F)(F)F [C8F17SO3H]
head temperature of distillation ([1]; 8.00 Torr, from 100% H2SO4): 135–142 °C | pot temperature of distillation ([1]; 8.00 Torr, from 100% H2SO4): 148–157 °C

O=S(=O)(O)C(F)(F)C(F)(F)C(F)(F)C(F)(F)S(=O)(=O)O [HO3S(CF2)4SO3H]
volatility: outcome of vacuum distillation ([1]; from 100% H2SO4, down to 1.75 Torr, pot temperature up to 196° C.): did not distill

CC(C)(C)c1ccc([I+]c2ccc(C(C)(C)C)cc2)cc1.CC(C)(C)c1ccc([I+]c2ccc(C(C)(C)C)cc2)cc1.O=S(=O)([O-])C(F)(F)C(F)(F)C(F)(F)S(=O)(=O)[O-] [PAG1, [(p-(CH3)3C—C6H4)2I^+]2-O3S(CF2)3SO3—]
onset of thermal decomposition (TGA) [2]: 224 °C | PDSC Energy [3]: 209 J/g | DSC after PDSC Energy [3, 7]: 54 J/g | PDSC Induction Time ([3]; VEX 5015): 1.6 | DSC Only (dark) Onset Temp [3, 8]: 100, C.° and 160 C.° | PDSC Peak Max ([3]; VEX 5015): 4.2 | PDSC Energy [4]: 8 J/g | DSC after PDSC Onset Temp [4]: 100 C.° | DSC after PDSC Energy [4]: 553 J/g | DSC after PDSC Peak Max [4]: 192 °C | PDSC Induction Time [4]: 16.2 | DSC Only (dark) Energy [4]: 576 J/g | DSC Only (dark) Onset Temp [4]: 180 C.° | DSC Only (dark) Peak Max [4]: 230 °C | PDSC Peak Max [4]: 27 | PDSC Energy [5]: 7 J/g | DSC after PDSC Onset Temp [5]: 60 C.° | DSC after PDSC Energy [5]: 582 J/g | DSC after PDSC Peak Max [5]: 148 °C | PDSC Induction Time [5]: 15.1 | DSC Only (dark) Energy [5]: 565 J/g | DSC Only (dark) Onset Temp [5]: 150 C.° | DSC Only (dark) Peak Max [5]: 203 | PDSC Peak Max [5]: 24

CC(C)(C)c1ccc([I+]c2ccc(C(C)(C)C)cc2)cc1.CC(C)(C)c1ccc([I+]c2ccc(C(C)(C)C)cc2)cc1.O=S(=O)([O-])C(F)(F)C(F)(F)C(F)(F)C(F)(F)S(=O)(=O)[O-] [PAG2, [(p-(CH3)3C—C6H4)2I^+]2-O3S(CF2)4SO3—]
onset of thermal decomposition (TGA) [2]: 237 °C | PDSC Energy [3]: 220 J/g | DSC after PDSC Energy [3, 7]: 31 J/g | DSC after PDSC Onset Temp [3, 9]: 135 C.° | DSC after PDSC Peak Max [3, 9]: 158 °C | PDSC Induction Time ([3]; VEX 5015): 1.3 | DSC Only (dark) Onset Temp [3, 8]: 100, C.° and 160 C.° | PDSC Peak Max ([3]; VEX 5015): 3.4 | solubility in PGMEA: greater than 4 wt % | PDSC Energy [4]: 7 J/g | DSC after PDSC Onset Temp [4]: 110 C.° | DSC after PDSC Energy [4]: 541 J/g | DSC after PDSC Peak Max [4]: 194 °C | PDSC Induction Time [4]: 17.1 | DSC Only (dark) Energy [4]: 574 J/g | DSC Only (dark) Onset Temp [4]: 175 C.° | DSC Only (dark) Peak Max [4]: 232 °C | PDSC Peak Max [4]: 27 | PDSC Energy [5]: 10 J/g | DSC after PDSC Onset Temp [5]: 60 C.° | DSC after PDSC Energy [5]: 538 J/g | DSC after PDSC Peak Max [5]: 142 °C | PDSC Induction Time [5]: 14.8 | DSC Only (dark) Energy [5]: 574 J/g | DSC Only (dark) Onset Temp [5]: 150 C.° | DSC Only (dark) Peak Max [5]: 196 | PDSC Peak Max [5]: 25

O=S(=O)(O)C(F)(F)C(F)(F)C(F)(F)C(F)(F)F [perfluorobutylsulfonate]
elimination from the body [6]: eliminates from the body more effectively than perfluorohexylsulfonate and much more effectively than perfluorooctylsulfonate
